From ChEMBL document CHEMBL5505994, “Nur77 increases mitophagy and decreases aggregation of α-synuclein by modulating the p-c-Abl/p-PHB2 Y121 in α-synuclein PFF SH-SY5Y cells and mice” (Eur J Med Chem, 2024)
Active and inactive are the calls of the source.

Columns and labels:
SH-SY5Y [1] = assay: Agonist activity at Nur77-c-Abl-PHB2 pathway in alpha-synuclein preformed fibril-induced human SH-SY5Y cells assessed as decrease in c-Abl phosphorylation at 1 uM treated for 24 hrs by Western blot analysis; assay type: cell-based; conditions: filed as agonist
SH-SY5Y [2] = assay: Agonist activity at Nur77-c-Abl-PHB2 pathway in alpha-synuclein preformed fibril-induced human SH-SY5Y cells assessed as translocation of Nur77 into mitochondria at 1 uM treated for 24 hrs by Western blot analysis; conditions: filed as agonist
SH-SY5Y [3] = assay: Agonist activity at Nur77-c-Abl-PHB2 pathway in alpha-synuclein preformed fibril-induced human SH-SY5Y cells assessed as interaction with c-Abl at 1 uM treated for 24 hrs by Co-immunoprecipitation (Co-IP) assay; assay type: cell-based; conditions: filed as agonist
SH-SY5Y [4] = assay: Agonist activity at Nur77-c-Abl-PHB2 pathway in alpha-synuclein preformed fibril-induced human SH-SY5Y cells assessed as increase in ratio of LC3-II/LC3I at 1 uM treated for 24 hrs by Western blot analysis; assay type: cell-based; conditions: filed as agonist
SH-SY5Y [5] = assay: Agonist activity at Nur77-c-Abl-PHB2 pathway in alpha-synuclein preformed fibril-induced human SH-SY5Y cells assessed as decrease in p62 expression at 1 uM treated for 24 hrs by Western blot analysis; assay type: cell-based; conditions: filed as agonist
SH-SY5Y [6] = assay: Agonist activity at Nur77-c-Abl-PHB2 pathway in alpha-synuclein preformed fibril-induced human SH-SY5Y cells assessed as reduction in PHB2 phosphorylation at 1 uM treated for 24 hrs by Western blot analysis; assay type: cell-based; conditions: filed as agonist
SH-SY5Y [7] = assay: Agonist activity at Nur77 in alpha-synuclein preformed fibril-induced human SH-SY5Y cells assessed as reduction in alpha-synuclein aggregation at 1 uM treated for 24 hrs by Western blot analysis; assay type: cell-based; conditions: filed as agonist
SH-SY5Y [8] = assay: Agonist activity at Nur77-c-Abl-PHB2 pathway in alpha-synuclein preformed fibril-induced human SH-SY5Y cells assessed as increase in PHB2/LC3 interaction at 1 uM treated for 24 hrs by Co-immunoprecipitation (Co-IP) assay; assay type: cell-based; conditions: filed as agonist
Mus musculus [9] = species: Mus musculus; assay: Neuroprotection activity in alpha-synuclein preformed fibril-induced C57BL/6J mouse PD model assessed as decrease in phosphorylated c-Abl level in brain at 1 uM treated after 3 month PPF challenge measured after 14 days by Western blot analysis; assay type: functional, organism-based; conditions: time 14.0 day
Mus musculus [10] = species: Mus musculus; assay: Neuroprotection activity in alpha-synuclein preformed fibril-induced C57BL/6J mouse PD model assessed as decrease in phosphorylated […] level in brain at 1 uM treated after 3 month PPF challenge measured after 14 days by Western blot analysis; assay type: functional, organism-based; conditions: time 14.0 day
Mus musculus [11] = species: Mus musculus; assay: Neuroprotection activity in alpha-synuclein preformed fibril-induced C57BL/6J mouse PD model assessed as increase in LC3 level in brain at 1 uM treated after 3 month PPF challenge measured after 14 days by Western blot analysis; assay type: functional, organism-based; conditions: time 14.0 day
Mus musculus [12] = species: Mus musculus; assay: Neuroprotection activity in alpha-synuclein preformed fibril-induced C57BL/6J mouse PD model assessed as decrease in p62 expression in brain at 1 uM treated after 3 month PPF challenge measured after 14 days by Western blot analysis; assay type: functional, organism-based; conditions: time 14.0 day
Mus musculus [13] = species: Mus musculus; assay: Neuroprotection activity in alpha-synuclein preformed fibril-induced C57BL/6J mouse PD model assessed as decrease in pS129-alpha-synuclein in SNpc TH positive neurons in brain at 1 uM treated after 3 month PPF challenge measured after 14 days by Western blot analysis; assay type: functional, organism-based; conditions: time 14.0 day
Mus musculus [14] = species: Mus musculus; assay: Neuroprotection activity in alpha-synuclein preformed fibril-induced C57BL/6J mouse PD model assessed as rescue of DA neurons in brain by measuring TH positive neurons at 1 uM treated after 3 month PPF challenge measured after 14 days by immunohistochemistry; assay type: functional, organism-based; conditions: time 14.0 day

Measured: Activity

CCCCCCCC(=O)c1c(O)cc(O)cc1CC(=O)OCC
active: all assays above
